{"source": "paper PMC7402526", "about": "“An in vitro quantitative systems pharmacology approach for deconvolving mechanisms of drug-induced, multilineage cytopenias” (PLoS Computational Biology, 2020)", "format_in_all_cases": "cell-based, human", "key": {"[1]": {"system": "granulocyte progenitor (Gran-lin prog)", "assay": "MLTA, GranP: concentration-response and QSP model fit", "settings": "Homo sapiens, 144 h", "in_short": "(§1)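 Freeze-thawed primary human bone marrow CD34+ cells were grown in SFEM II with a multi-lineage cytokine cocktail, drug added day 0, six days at 37°C. Lineage counts came from 17-parameter flow with TruCount beads, vehicle-normalized per donor, then fitted by an Emax-based QSP model.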"}, "[2]": {"system": "monocyte progenitors (monocyte prog)", "assay": "MLTA, MonoP: concentration-response and QSP model fit", "settings": "Homo sapiens, Monocyte, 144 h", "in_short": "as §1"}, "[3]": {"system": "neutrophils (neutrophil-lin)", "assay": "MLTA, Neut: concentration-response and QSP model fit", "settings": "Homo sapiens, Neutrophil, 144 h", "in_short": "(§2)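 Values derive from fitting a QSP Emax model (EmaxT 0–2, above 1 denoting added cell killing) to vehicle-normalized lineage counts. Counts were obtained by 17-parameter flow after 6-day culture of human bone marrow CD34+ cells with test article.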"}, "B cells (B-lin)": {"system": "B cells (B-lin)", "assay": "MLTA, B-lin: concentration-response and QSP model fit", "settings": "Homo sapiens, B-cell, 144 h", "in_short": "as §2"}, "monocytes (monocyte-lin)": {"system": "monocytes (monocyte-lin)", "assay": "MLTA, Mono: concentration-response and QSP model fit", "settings": "Homo sapiens, Monocyte, 144 h", "in_short": "as §1"}, "[4]": {"system": "early erythroid cells (Eryth I)", "assay": "MLTA, ErythI: concentration-response and QSP model fit", "settings": "Homo sapiens, 144 h", "in_short": "as §1"}, "[5]": {"system": "hematopoietic stem cells (HSCs)", "assay": "Multi-lineage toxicity assay (MLTA), HSCs: concentration-response and QSP model fit", "settings": "Homo sapiens, Hematopoietic stem cell, 144 h", "in_short": "as §2"}, "[6]": {"settings": "QSP model fit of 6-day MLTA data"}}, "data": [{"smiles": "CS(=O)(=O)N1CCN(Cc2cc3nc(-c4cccc5[nH]ncc45)nc(N4CCOCC4)c3s2)CC1", "note": "[pictilisib]", "values": [{"measurement": "EC50", "setting": "[1]; QSP model fit of 6-day MLTA data, read-out: EC50GranP", "value": 93, "unit": "nM"}, {"measurement": "activity at 0.0002 µM", "setting": "[1]; dose 0.2 nM, 6 days, normalized to vehicle control, read-out: GranPs normalized cell count", "value": 95.5, "unit": "%"}, {"measurement": "activity at 0.001 µM", "setting": "[1]; dose 1 nM, 6 days, normalized to vehicle control, read-out: GranPs normalized cell count", "value": 100, "unit": "%"}, {"measurement": "activity at 0.005 µM", "setting": "[1]; dose 5 nM, 6 days, normalized to vehicle control, read-out: GranPs normalized cell count", "value": 101, "unit": "%"}, {"measurement": "activity at 0.025 µM", "setting": "[1]; dose 25 nM, 6 days, normalized to vehicle control, read-out: GranPs normalized cell count", "value": 84, "unit": "%"}, {"measurement": "activity at 0.1 µM", "setting": "[1]; dose 100 nM, 6 days, normalized to vehicle control, read-out: GranPs normalized cell count", "value": 70.2, "unit": "%"}, {"measurement": "activity at 0.5 µM", "setting": "[1]; dose 500 nM, 6 days, normalized to vehicle control, read-out: GranPs normalized cell count", "value": 60.8, "unit": "%"}, {"measurement": "activity at 2.5 µM", "setting": "[1]; dose 2500 nM, 6 days, normalized to vehicle control, read-out: GranPs normalized cell count", "value": 28.4, "unit": "%"}, {"measurement": "Emax", "setting": "[1]; parameter from QSP model fitting, read-out: Emax_drug_GranP", "value": 60.5, "unit": "%"}, {"measurement": "EC50", "setting": "[2]; QSP model fit of 6-day MLTA data, read-out: EC50MonoP", "value": 117, "unit": "nM"}, {"measurement": "activity at 0.0002 µM", "setting": "[2]; dose 0.2 nM, 6 days, normalized to vehicle control, read-out: MonoPs normalized cell count", "value": 105, "unit": "%"}, {"measurement": "activity at 0.001 µM", "setting": "[2]; dose 1 nM, 6 days, normalized to vehicle control, read-out: MonoPs normalized cell count", "value": 94.3, "unit": "%"}, {"measurement": "activity at 0.005 µM", "setting": "[2]; dose 5 nM, 6 days, normalized to vehicle control, read-out: MonoPs normalized cell count", "value": 87.2, "unit": "%"}, {"measurement": "activity at 0.025 µM", "setting": "[2]; dose 25 nM, 6 days, normalized to vehicle control, read-out: MonoPs normalized cell count", "value": 74.8, "unit": "%"}, {"measurement": "activity at 0.1 µM", "setting": "[2]; dose 100 nM, 6 days, normalized to vehicle control, read-out: MonoPs normalized cell count", "value": 49, "unit": "%"}, {"measurement": "activity at 0.5 µM", "setting": "[2]; dose 500 nM, 6 days, normalized to vehicle control, read-out: MonoPs normalized cell count", "value": 30.2, "unit": "%"}, {"measurement": "activity at 2.5 µM", "setting": "[2]; dose 2500 nM, 6 days, normalized to vehicle control, read-out: MonoPs normalized cell count", "value": 11.3, "unit": "%"}, {"measurement": "Emax", "setting": "[2]; parameter from QSP model fitting, read-out: Emax_drug_MonoP", "value": 140, "unit": "%"}, {"measurement": "EC50", "setting": "[3]; [6]", "value": 132, "unit": "nM"}, {"measurement": "activity at 0.0002 µM", "setting": "[3]; dose 0.2 nM, 6 days, normalized to vehicle control, read-out: Neut normalized cell count", "value": 92.7, "unit": "%"}, {"measurement": "activity at 0.001 µM", "setting": "[3]; dose 1 nM, 6 days, normalized to vehicle control, read-out: Neut normalized cell count", "value": 82.6, "unit": "%"}, {"measurement": "activity at 0.005 µM", "setting": "[3]; dose 5 nM, 6 days, normalized to vehicle control, read-out: Neut normalized cell count", "value": 64.5, "unit": "%"}, {"measurement": "activity at 0.025 µM", "setting": "[3]; dose 25 nM, 6 days, normalized to vehicle control, read-out: Neut normalized cell count", "value": 59.8, "unit": "%"}, {"measurement": "activity at 0.1 µM", "setting": "[3]; dose 100 nM, 6 days, normalized to vehicle control, read-out: Neut normalized cell count", "value": 30.4, "unit": "%"}, {"measurement": "activity at 0.5 µM", "setting": "[3]; dose 500 nM, 6 days, normalized to vehicle control, read-out: Neut normalized cell count", "value": 6.17, "unit": "%"}, {"measurement": "activity at 2.5 µM", "setting": "[3]; dose 2500 nM, 6 days, normalized to vehicle control, read-out: Neut normalized cell count", "value": 0.529, "unit": "%"}, {"measurement": "Emax", "setting": "[3]; parameter from QSP model fitting, read-out: Emax_drug_Neut", "value": 16.5, "unit": "%"}, {"measurement": "EC50", "setting": "B cells (B-lin); [6]", "value": 91.3, "unit": "nM"}, {"measurement": "activity at 0.0002 µM", "setting": "B cells (B-lin); dose 0.2 nM, 6 days, normalized to vehicle control, read-out: B-lin normalized cell count", "value": 93.8, "unit": "%"}, {"measurement": "activity at 0.001 µM", "setting": "B cells (B-lin); dose 1 nM, 6 days, normalized to vehicle control, read-out: B-lin normalized cell count", "value": 107, "unit": "%"}, {"measurement": "activity at 0.005 µM", "setting": "B cells (B-lin); dose 5 nM, 6 days, normalized to vehicle control, read-out: B-lin normalized cell count", "value": 81.5, "unit": "%"}, {"measurement": "activity at 0.025 µM", "setting": "B cells (B-lin); dose 25 nM, 6 days, normalized to vehicle control, read-out: B-lin normalized cell count", "value": 65.5, "unit": "%"}, {"measurement": "activity at 0.1 µM", "setting": "B cells (B-lin); dose 100 nM, 6 days, normalized to vehicle control, read-out: B-lin normalized cell count", "value": 37.5, "unit": "%"}, {"measurement": "activity at 0.5 µM", "setting": "B cells (B-lin); dose 500 nM, 6 days, normalized to vehicle control, read-out: B-lin normalized cell count", "value": 16.2, "unit": "%"}, {"measurement": "activity at 2.5 µM", "setting": "B cells (B-lin); dose 2500 nM, 6 days, normalized to vehicle control, read-out: B-lin normalized cell count", "value": 6.19, "unit": "%"}, {"measurement": "Emax", "setting": "B cells (B-lin); parameter from QSP model fitting, read-out: Emax_drug_B", "value": 51.4, "unit": "%"}, {"measurement": "EC50", "setting": "monocytes (monocyte-lin); [6]", "value": 1020, "unit": "nM"}, {"measurement": "activity at 0.0002 µM", "setting": "monocytes (monocyte-lin); dose 0.2 nM, 6 days, normalized to vehicle control, read-out: Mon normalized cell count", "value": 92.5, "unit": "%"}, {"measurement": "activity at 0.001 µM", "setting": "monocytes (monocyte-lin); dose 1 nM, 6 days, normalized to vehicle control, read-out: Mon normalized cell count", "value": 90.6, "unit": "%"}, {"measurement": "activity at 0.005 µM", "setting": "monocytes (monocyte-lin); dose 5 nM, 6 days, normalized to vehicle control, read-out: Mon normalized cell count", "value": 79.5, "unit": "%"}, {"measurement": "activity at 0.025 µM", "setting": "monocytes (monocyte-lin); dose 25 nM, 6 days, normalized to vehicle control, read-out: Mon normalized cell count", "value": 77.6, "unit": "%"}, {"measurement": "activity at 0.1 µM", "setting": "monocytes (monocyte-lin); dose 100 nM, 6 days, normalized to vehicle control, read-out: Mon normalized cell count", "value": 61.1, "unit": "%"}, {"measurement": "activity at 0.5 µM", "setting": "monocytes (monocyte-lin); dose 500 nM, 6 days, normalized to vehicle control, read-out: Mon normalized cell count", "value": 30.9, "unit": "%"}, {"measurement": "activity at 2.5 µM", "setting": "monocytes (monocyte-lin); dose 2500 nM, 6 days, normalized to vehicle control, read-out: Mon normalized cell count", "value": 12.5, "unit": "%"}, {"measurement": "Emax", "setting": "monocytes (monocyte-lin); parameter from QSP model fitting, read-out: Emax_drug_Mono", "value": 3.93, "unit": "%"}, {"measurement": "activity at 0.0002 µM", "setting": "[4]; dose 0.2 nM, 6 days, normalized to vehicle control, read-out: ErythI normalized cell count", "value": 110, "unit": "%"}, {"measurement": "activity at 0.001 µM", "setting": "[4]; dose 1 nM, 6 days, normalized to vehicle control, read-out: ErythI normalized cell count", "value": 107, "unit": "%"}, {"measurement": "activity at 0.005 µM", "setting": "[4]; dose 5 nM, 6 days, normalized to vehicle control, read-out: ErythI normalized cell count", "value": 107, "unit": "%"}, {"measurement": "activity at 0.025 µM", "setting": "[4]; dose 25 nM, 6 days, normalized to vehicle control, read-out: ErythI normalized cell count", "value": 100, "unit": "%"}, {"measurement": "activity at 0.1 µM", "setting": "[4]; dose 100 nM, 6 days, normalized to vehicle control, read-out: ErythI normalized cell count", "value": 92.8, "unit": "%"}, {"measurement": "activity at 0.5 µM", "setting": "[4]; dose 500 nM, 6 days, normalized to vehicle control, read-out: ErythI normalized cell count", "value": 65.5, "unit": "%"}, {"measurement": "activity at 2.5 µM", "setting": "[4]; dose 2500 nM, 6 days, normalized to vehicle control, read-out: ErythI normalized cell count", "value": 27.5, "unit": "%"}, {"measurement": "Emax", "setting": "[4]; parameter from QSP model fitting, read-out: Emax_drug_ErythroidI", "value": 0.03, "unit": "%"}, {"measurement": "EC50", "setting": "[5]; [6]", "value": 289, "unit": "nM"}, {"measurement": "activity at 0.0002 µM", "setting": "[5]; dose 0.2 nM, 6 days, normalized to vehicle control, read-out: HSCs normalized cell count", "value": 89.1, "unit": "%"}, {"measurement": "activity at 0.001 µM", "setting": "[5]; dose 1 nM, 6 days, normalized to vehicle control, read-out: HSCs normalized cell count", "value": 102, "unit": "%"}, {"measurement": "activity at 0.005 µM", "setting": "[5]; dose 5 nM, 6 days, normalized to vehicle control, read-out: HSCs normalized cell count", "value": 88.5, "unit": "%"}, {"measurement": "activity at 0.025 µM", "setting": "[5]; dose 25 nM, 6 days, normalized to vehicle control, read-out: HSCs normalized cell count", "value": 99.2, "unit": "%"}, {"measurement": "activity at 0.1 µM", "setting": "[5]; dose 100 nM, 6 days, normalized to vehicle control, read-out: HSCs normalized cell count", "value": 58.1, "unit": "%"}, {"measurement": "activity at 0.5 µM", "setting": "[5]; dose 500 nM, 6 days, normalized to vehicle control, read-out: HSCs normalized cell count", "value": 28.1, "unit": "%"}, {"measurement": "activity at 2.5 µM", "setting": "[5]; dose 2500 nM, 6 days, normalized to vehicle control, read-out: HSCs normalized cell count", "value": 8.09, "unit": "%"}, {"measurement": "Emax", "setting": "[5]; parameter from QSP model fitting, read-out: Emax_drug_HSC", "value": 48.6, "unit": "%"}]}]}
